Test results taken from patent publication US11912701B2, “Protein kinase inhibitors for promoting liver regeneration or reducing or preventing hepatocyte death” (HEPAREGENIX GMBH, priority 2018, dated 2024).

How the values were obtained:
[1] = target: JNK1 (Homo sapiens, UniProt P45983); assay: KINOMEscan competition binding assay, JNK1; parameters: M1/Q384; host or cells: HEK-293; details: ratio PoC (off-target)/PoC (MKK4)
Protocol: (§1) The assay was performed by combining three components: DNA-tagged kinase; immobilized ligand; and a test compound. The ability of the test compound to compete with the immobilized ligand was measured via quantitative PCR of the DNA tag. The technology is described in detail in Fabian, M. A. et al. A small molecule-kinase interaction map for clinical kinase inhibitors. Nat. […] Nat.
(§2) For investigation of the affinity to MKK4, BRaf, MKK7 and JNK1, the kinases were produced in HEK-293 cells and subsequently tagged with DNA for qPCR detection. […] The liganded beads were blocked with excess biotin and washed with blocking buffer (SEABLOCK™ (Pierce), 1% BSA, 0.05% TWEEN®20, 1 mM DTT) to remove unbound ligand and to reduce nonspecific binding. […] All reactions were performed in polystyrene 96-well plates in a final volume of 0.135 mL. […] The kinase concentration in the eluates was measured by qPCR.
(§3) The test compounds were provided as 10 mM stock solutions. The test solutions at indicated final concentrations were prepared at DiscoverX.
(§4) Potency of representative examples against the protein kinases MKK4, BRaf, MKK7 and JNK1 expressed as residual percent of control binding (PoC), was determined at a concentration of 100 nM. The determined potencies are categorized as follows:
(§5) The binding selectivity of representative examples against the protein kinases BRaf, MKK7 and JNK1, altogether denominated as “off-targets” is determined by the ratios of PoC (off-target)/PoC (MKK4).

[2] = target: T1, MKK4 (Homo sapiens, UniProt P45985); assay: 33PanQinase enzyme assay, MKK4; format: biochemical; details: single concentration 100 nM; read-out: Potency MKK4 (residual activity, assay at single concentration)
T1 construct: purchased ProQinase GmbH, Freiburg, Germany (33PanQinase Assay Service)
T1 sequence (P45985 1-399): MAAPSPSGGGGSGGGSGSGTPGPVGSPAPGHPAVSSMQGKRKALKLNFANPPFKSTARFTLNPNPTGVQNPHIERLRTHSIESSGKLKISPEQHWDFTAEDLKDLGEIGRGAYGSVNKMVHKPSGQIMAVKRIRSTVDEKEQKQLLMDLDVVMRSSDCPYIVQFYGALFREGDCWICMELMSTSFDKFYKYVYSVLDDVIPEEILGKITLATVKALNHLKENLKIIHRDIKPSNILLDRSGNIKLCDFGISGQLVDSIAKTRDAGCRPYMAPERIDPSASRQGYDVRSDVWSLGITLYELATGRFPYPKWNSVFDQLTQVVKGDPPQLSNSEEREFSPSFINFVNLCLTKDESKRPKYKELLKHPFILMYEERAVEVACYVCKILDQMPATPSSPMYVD
Outline: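 Inhibition measured as 33Pi transfer to substrate after a 60-min, 30 °C reaction, acid-stopped and scintillation-counted.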

[3] = target: T2, MKK4 (Homo sapiens, UniProt P45985); assay: KINOMEscan competition binding assay, MKK4; details: residual percent of control binding (PoC) at 100 nM
T2 construct: S84/D399; host or cells: HEK-293
T2 sequence (P45985 84-399): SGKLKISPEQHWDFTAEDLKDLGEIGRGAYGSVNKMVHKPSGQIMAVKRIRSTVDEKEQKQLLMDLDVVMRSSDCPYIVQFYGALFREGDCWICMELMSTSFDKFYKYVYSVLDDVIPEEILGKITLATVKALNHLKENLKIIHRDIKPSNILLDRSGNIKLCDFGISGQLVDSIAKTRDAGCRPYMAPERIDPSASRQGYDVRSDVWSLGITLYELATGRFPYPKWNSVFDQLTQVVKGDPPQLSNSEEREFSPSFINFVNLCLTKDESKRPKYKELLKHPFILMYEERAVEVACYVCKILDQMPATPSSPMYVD
Protocol: as §1, §2, §3
Potency of representative examples against the protein kinases MKK4, BRaf, MKK7 and JNK1 expressed as residual percent of control binding (PoC), was determined at a concentration of 100 nM. The determined potencies are categorized as follows: […]

[4] = target: T3, MKK7 (Homo sapiens, UniProt O14733); assay: KINOMEscan competition binding assay, MKK7; parameters: M1/R419; host or cells: HEK-293; details: ratio PoC (off-target)/PoC (MKK4)
T3 sequence (O14733 1-419): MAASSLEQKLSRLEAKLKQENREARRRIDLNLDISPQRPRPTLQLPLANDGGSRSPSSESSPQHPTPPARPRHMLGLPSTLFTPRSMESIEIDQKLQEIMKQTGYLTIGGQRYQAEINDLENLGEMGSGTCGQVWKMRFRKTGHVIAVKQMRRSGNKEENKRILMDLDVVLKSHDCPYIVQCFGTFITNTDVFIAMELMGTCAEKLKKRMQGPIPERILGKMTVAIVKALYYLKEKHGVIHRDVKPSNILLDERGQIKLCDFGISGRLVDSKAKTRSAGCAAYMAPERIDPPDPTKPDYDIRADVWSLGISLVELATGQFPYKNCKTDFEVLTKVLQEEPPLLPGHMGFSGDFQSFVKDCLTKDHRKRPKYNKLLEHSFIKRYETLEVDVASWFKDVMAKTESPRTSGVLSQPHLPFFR
Protocol: as §1, §2, §3, §4, §5

[5] = target: T4, BRaf (Homo sapiens, UniProt P15056); assay: KINOMEscan competition binding assay, BRaf; details: ratio PoC (off-target)/PoC (MKK4)
T4 construct: purchased ProQinase GmbH, Freiburg, Germany (33PanQinase Assay Service)
Protocol: as §1, §2, §3, §4, §5

T4 sequence (P15056 whole entry, species assumed): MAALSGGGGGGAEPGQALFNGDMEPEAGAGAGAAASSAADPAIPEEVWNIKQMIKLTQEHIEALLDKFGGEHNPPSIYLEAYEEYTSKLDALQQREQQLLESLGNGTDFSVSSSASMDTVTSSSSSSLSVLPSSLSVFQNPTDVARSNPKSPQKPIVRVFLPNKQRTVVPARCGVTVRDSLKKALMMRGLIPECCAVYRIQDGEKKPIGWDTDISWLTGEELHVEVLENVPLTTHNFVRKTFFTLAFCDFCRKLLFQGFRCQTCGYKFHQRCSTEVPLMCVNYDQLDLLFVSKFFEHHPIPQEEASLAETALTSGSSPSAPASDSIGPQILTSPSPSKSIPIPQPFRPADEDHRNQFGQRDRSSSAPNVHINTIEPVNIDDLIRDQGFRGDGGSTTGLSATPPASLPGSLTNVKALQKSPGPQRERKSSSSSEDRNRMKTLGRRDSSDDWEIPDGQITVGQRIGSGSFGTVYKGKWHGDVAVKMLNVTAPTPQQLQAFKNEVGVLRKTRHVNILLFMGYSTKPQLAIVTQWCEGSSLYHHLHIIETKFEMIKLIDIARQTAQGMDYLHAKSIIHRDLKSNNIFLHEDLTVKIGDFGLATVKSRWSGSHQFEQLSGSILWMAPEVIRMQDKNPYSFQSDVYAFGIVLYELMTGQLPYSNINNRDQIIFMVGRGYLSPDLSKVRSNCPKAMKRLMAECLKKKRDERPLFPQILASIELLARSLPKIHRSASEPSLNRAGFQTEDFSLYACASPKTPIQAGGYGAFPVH
Chain of JNK1 (P45983 1-384 isoform P45983-2): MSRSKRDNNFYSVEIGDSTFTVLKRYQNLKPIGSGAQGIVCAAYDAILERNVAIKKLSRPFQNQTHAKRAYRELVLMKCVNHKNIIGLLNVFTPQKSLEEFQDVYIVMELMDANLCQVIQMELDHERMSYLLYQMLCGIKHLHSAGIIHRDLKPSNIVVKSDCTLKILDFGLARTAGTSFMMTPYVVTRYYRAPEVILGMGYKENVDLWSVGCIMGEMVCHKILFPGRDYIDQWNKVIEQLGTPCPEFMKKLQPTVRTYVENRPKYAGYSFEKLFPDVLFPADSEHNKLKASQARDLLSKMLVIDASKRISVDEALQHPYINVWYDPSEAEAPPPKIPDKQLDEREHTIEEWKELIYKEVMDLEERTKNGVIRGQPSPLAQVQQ

| Structure (SMILES) | selectivity based on % Ctrl @100 nM vs. JNK1 [1] | remaining activity at 0.1 µM [2] [%] | MKK4 [% Ctrl @ 100 nM [3] | selectivity based on % Ctrl @100 nM vs. MKK7 [4] | selectivity based on % Ctrl @100 nM vs. Braf [5] |
| --- | --- | --- | --- | --- | --- |
| CCCS(=O)(=O)Nc1ccc(Br)c(C(=O)c2c[nH]c3ncc(-c4ccc(Cl)cc4)cc23)c1Br [Example 2b, N-(2,4-dibromo-3-(5-(4-chlorophenyl)-1H-pyrrolo[2,3-b]pyridine-3-carbonyl)phenyl)propane-1-sulfonamide] | ◯ (3 ≥ Ratio) | 70 to 90 | ◯ (30 ≤ PoC) | ◯ (3 ≥ Ratio) | ◯ (3 ≥ Ratio) |
| CCCS(=O)(=O)Nc1c(Cl)ccc(C(=O)c2c[nH]c3ncc(-c4ccc(Cl)cc4)cc23)c1F [Example 2d] | + (10 ≥ ratio > 3) | 70 to 90 | + (3 ≤ PoC < 30) | + (10 ≥ ratio > 3) | + (10 ≥ ratio > 3) |
| CCCCS(=O)(=O)Nc1ccc(F)c(C(=O)c2c[nH]c3ncc(-c4ccc(F)cc4C)cc23)c1F [Example 19, N-(2,4-difluoro-3-(5-(4-fluoro-2-methylphenyl)-1H-pyrrolo[2,3-b]pyridine-3-carbonyl)phenyl)butane-1-sulfonamide] | ++ (100 ≥ ratio > 10) | – | + (3 ≤ PoC < 30) | ++ (100 ≥ ratio > 10) | ++ (100 ≥ ratio > 10) |
| CCCCS(=O)(=O)Nc1ccc(F)c(C(=O)c2c[nH]c3ncc(-c4ccc(OC)cc4Cl)cc23)c1F [Example 21, N-(3-(5-(2-chloro-4-methoxyphenyl)-1H-pyrrolo[2,3-b]pyridine-3-carbonyl)-2,4-difluorophenyl)butane-1-sulfonamide] | ++ (100 ≥ ratio > 10) | – | ++ (1 ≤ PoC < 3) | ++ (100 ≥ ratio > 10) | ++ (100 ≥ ratio > 10) |
| CCCS(=O)(=O)Nc1ccc(F)c(C(=O)c2c[nH]c3ncc(-c4ccc(N5CCN(C(C)=O)CC5)cc4)cc23)c1F [Example 24, N-(3-(5-(4-(4-acetylpiperazin-1-yl)phenyl)-1H-pyrrolo[2,3-b]pyridine-3-carbonyl)-2,4-difluorophenyl)propane-1-sulfonamide] | + (10 ≥ ratio > 3) | – | + (3 ≤ PoC < 30) | ++ (100 ≥ ratio > 10) | ◯ (3 ≥ Ratio) |
| CCCS(=O)(=O)Nc1ccc(F)c(C(=O)c2c[nH]c3ncc(-c4ccc(OCC5COC(C)(C)O5)cc4Cl)cc23)c1F (stereo not shown) [Example 25, N-(3-(5-(2-chloro-4-((2,2-dimethyl-1,3-dioxolan-4-yl)methoxy)phenyl)-1H-pyrrolo[2,3-b]pyridine-3-carbonyl)-2,4-difluorophenyl)propane-1-sulfonamide] | + (10 ≥ ratio > 3) | – | + (3 ≤ PoC < 30) | + (10 ≥ ratio > 3) | ◯ (3 ≥ Ratio) |
| COc1ccc(-c2cnc3[nH]cc(C(=O)c4c(F)ccc(NS(=O)(=O)Cc5ccccc5)c4F)c3c2)cc1 [Example 26, N-(2,4-difluoro-3-(5-(4-methoxyphenyl)-1H-pyrrolo[2,3-b]pyridine-3-carbonyl)phenyl)-1-phenylmethanesulfonamide] | ++ (100 ≥ ratio > 10) | – | ++ (1 ≤ PoC < 3) | ++ (100 ≥ ratio > 10) | ++ (100 ≥ ratio > 10) |
| O=C(c1c(F)ccc(NS(=O)(=O)Cc2ccccc2)c1F)c1c[nH]c2ncc(-c3ccc(F)cc3)cc12 [Example 28, N-(2,4-difluoro-3-(5-(4-fluorophenyl)-1H-pyrrolo[2,3-b]pyridine-3-carbonyl)phenyl)-1-phenylmethanesulfonamide] | ++ (100 ≥ ratio > 10) | – | ++ (1 ≤ PoC < 3) | ++ (100 ≥ ratio > 10) | ++ (100 ≥ ratio > 10) |
| CCCS(=O)(=O)Nc1ccc(F)c(C(=O)c2c[nH]c3ncc(-c4ccc(OCC5COC(C)(C)O5)cc4)cc23)c1F (stereo not shown) [Example 29, N-(3-(5-(4-((2,2-dimethyl-1,3-dioxolan-4-yl)methoxy)phenyl)-1H-pyrrolo[2,3-b]pyridine-3-carbonyl)-2,4-difluorophenyl)propane-1-sulfonamide] | ++ (100 ≥ ratio > 10) | – | + (3 ≤ PoC < 30) | ++ (100 ≥ ratio > 10) | ◯ (3 ≥ Ratio) |
| CCCS(=O)(=O)Nc1ccc(F)c(C(=O)c2c[nH]c3ncc(-c4ccc(OCC(O)CO)cc4Cl)cc23)c1F (stereo not shown) [Example 30, N-(3-(5-(2-chloro-4-(2,3-dihydroxypropoxy)phenyl)-1H-pyrrolo[2,3-b]pyridine-3-carbonyl)-2,4-difluorophenyl)propane-1-sulfonamide] | +++ (Ratio > 100) | – | +++ (PoC < 1) | +++ (Ratio > 100) | ++ (100 ≥ ratio > 10) |
| CCCS(=O)(=O)Nc1ccc(F)c(C(=O)c2c[nH]c3ncc(-c4ccc(OCC(O)CO)cc4)cc23)c1F (stereo not shown) [Example 31, N-(3-(5-(4-(2,3-dihydroxypropoxy)phenyl)-1H-pyrrolo[2,3-b]pyridine-3-carbonyl)-2,4-difluorophenyl)propane-1-sulfonamide] | +++ (Ratio > 100) | – | +++ (PoC < 1) | +++ (Ratio > 100) | ◯ (3 ≥ Ratio) |
| CCCS(=O)(=O)Nc1ccc(F)c(C(=O)c2c[nH]c3ncc(-c4cccc(Cl)c4)cc23)c1F [Example 32, N-(3-(5-(3-chlorophenyl)-1H-pyrrolo[2,3-b]pyridine-3-carbonyl)-2,4-difluorophenyl)propane-1-sulfonamide] | + (10 ≥ ratio > 3) | 70 to 90 | + (3 ≤ PoC < 30) | + (10 ≥ ratio > 3) | ◯ (3 ≥ Ratio) |
| CCCS(=O)(=O)Nc1ccc(F)c(C(=O)c2c[nH]c3ncc(-c4ccc(OC)cc4OC)cc23)c1F [Example 104, N-(3-(5-(2,4-dimethoxyphenyl)-1H-pyrrolo[2,3-b]pyridine-3-carbonyl)-2,4-difluorophenyl)propane-1-sulfonamide] | ++ (100 ≥ ratio > 10) | – | + (3 ≤ PoC < 30) | ++ (100 ≥ ratio > 10) | + (10 ≥ ratio > 3) |
